Measured values as given in the CheMixHub drug solubility set.

Assay: xn = mol fraction of the nth substance listed, in the solute-free solvent

Cc1nc(CCl)nc2ccccc12 + CC(C)=O + CCCCCC
solubility (g/100 g solution)
Conditions	x2 = 0.144	x2 = 0.266	x2 = 0.403	x2 = 0.556	x2 = 0.729
281.15 K	5.18	8.5	12.8	17.2	22.3
286.15 K	6.57	10.8	15.5	21.2	27.1
291.15 K	8.19	13.3	19.2	25.8	32.3
296.15 K	10.3	16.2	22.9	30.4	39.2
301.15 K	12.7	19.9	28.3	36.2	44.9
306.15 K	15.6	23.9	33.3	42.4	51.9
311.15 K	18.9	28.3	38.4	48.4	58.8
316.15 K	22.5	33.1	43.7	54.6	65
321.15 K	26.6	37.2	49	60.7	71
326.15 K	30.9	42.9	54.4	65.4	75.5
331.15 K	34.9	47.5	59	70.3	79.5

O=c1ccc2ccccc2o1 + CC(C)=O + O
solubility (g/100 g solution)
Conditions	x2 = 0.1	x2 = 0.2	x2 = 0.3	x2 = 0.4	x2 = 0.5	x2 = 0.6	x2 = 0.7	x2 = 0.8	x2 = 0.9
268.15 K	0.474	2.21	4.51	9.81	13.8	17.1	19.9	21.9	23.1
273.15 K	0.611	2.81	6.5	11.9	16.8	20.6	23.7	25.8	26.9
278.15 K	0.798	3.96	8.98	15.3	20.9	25	27.8	30.6	31.5
283.15 K	1.05	5.18	12.2	19.5	25.5	30.2	33.1	35.3	36.2
288.15 K	1.38	6.75	16.8	24.6	31.4	36	39.3	41.2	41.8
293.15 K	1.8	9.24	22.3	31.3	38.5	42.9	46.2	47.7	48
298.15 K	2.27	12.3	29.6	38.4	45.7	49.6	52.6	53.6	53.9
303.15 K	2.96	16.8	37.4	47	53.9	57.2	59.4	59.8	59.8
